Experimental data as given in US10596127B2, “Composition for reducing the frequency of urination, method of making and use thereof” (WELLESLEY PHARMACEUTICALS, LLC, priority 2013, dated 2020).

Experiments:
[1] = tested on: COX2 expression by mouse bladder cells; assay: Cell-based ELISA of total COX2 in mouse bladder cells; settings: for induction of COX2 responses by analgesic alone: 5 μM or 50 μM, 24-hour cultures, no stimulus; for effect on the effect of LPS on COX2 levels: LPS (1 μg/ml), analgesic at either 5 μM or 50 μM
Method: Bladder cells were removed from euthanized animals C57BL/6 mice (8-12 weeks old) and cells were isolated by enzymatic digestion followed by purification on a Percoll gradient. Briefly, bladders from 10 mice were minced with scissors to fine slurry in 10 ml of digestion buffer (RPMI 1640, 2% fetal bovine serum, 0.5 mg/ml collagenase, 30 μg/ml DNase). Bladder slurries were enzymatically digested for 30 minutes at 37° C. Undigested fragments were further dispersed through a cell-trainer. The cell suspension was pelleted and added to a discontinue 20%, 40% and 75% Percoll gradient for purification on mononuclear cells. Each experiment used 50-60 bladders.
After washes in RPMI 1640, bladder cells were resuspended RPMI 1640 supplemented with 10% fetal bovine serum, 15 mM HEPES, 2 mM L-glutamine, 100 U/ml penicillin, and 100 μg/ml of streptomycin and seeded in clear-bottom black 96-well cell culture microculture plates at a cell density of 3×10^4 cells per well in 100 μl. Cells were cultured at 37° C. in a 5% CO2 atmosphere.
Bladder cells were treated with analgesic solutions (50 well) either alone or together with carbachol (10-Molar, 50 μl/well), as an example of non-inflammatory stimuli, or lipopolysaccharide (LPS) of Salmonella typhimurium (1 μg/ml, 50 μl/well), as an example of […] stimuli. When no other effectors were added to the cells, 50 μl of RPMI 1640 without fetal bovine serum were added to the wells to adjust the final volume to 200 μl.
(§1) After 24 hours of culture, 150 μl of culture supernatants were collected, spun down for 2 min at 8,000 rpm at 4° C. to remove cells and debris and stored at −70° C. for analysis of Prostaglandin E2 (PGE2) responses by ELISA. Cells were fixed, permeabilized and blocked for detection of Cyclooxygenase-2 (COX2) using a fluorogenic substrate. In selected experiment cells were stimulated 12 hours in vitro for analysis of COX2 responses
COX2 responses were analyzed by a Cell-Based ELISA using Human/mouse total COX2 immunoassay (R&D Systems), following the instructions of the manufacturer. Briefly, after cells fixation and permeabilization, a mouse anti-total COX2 and a rabbit anti-total GAPDH were added to the wells of the clear-bottom black 96-well cell culture microculture plates. After incubation and washes, an HRP-conjugated anti-mouse IgG and an AP-conjugated anti-rabbit IgG were added to the wells. Following another incubation and set of washes, the HRP- and AP-fluorogenic substrates were added. Finally, a Victor® V multilabel plate reader (PerkinElmer) was used to read the fluorescence emitted at 600 nm (COX2 fluorescence) and 450 nm (GAPDH fluorescence). Results are expressed as relative levels of total COX2 as determined by relative fluorescence unit (RFUs) and normalized to the housekeeping protein GAPDH.

[2] = adult humans; cited from earlier work
[3] = tested on: TNFα secretion by normal human bladder smooth muscle cells; assay: TNFα ELISA of normal human bladder smooth muscle cell supernatants; format: cell-based; settings: for TNFα (pg/ml) Subject 2 / TNFα (pg/ml) Subject 1: Carbachol 10^−3 M plus analgesic 50 μM; for TNFα (pg/ml) Subject 2: carbachol alone 286, unstimulated <5; for TNFα (pg/ml) Subject 1: carbachol alone 350, unstimulated <5, mean of duplicates; for effect on the effect of carbachol and LPS on TNFα responses: LPS-induced responses: analgesic at either 5 μM or 50 μM
Method: Culture supernatants were subjected to cytokine-specific ELISA to determine IL-1β, IL-6 and TNF-α responses in cultures of macrophages treated with analgesic, LPS alone or a combination of LPS and analgesic. The assays were performed on Nunc MaxiSorp Immunoplates (Nunc) coated overnight with 100 μl of anti-mouse IL-6, TNF-α mAbs (BD Biosciences) or IL-1β mAb (R&D Systems) in 0.1 M sodium bicarbonate buffer (pH 9.5). After two washes with PBS (200 μl per well), 200 μl of PBS 3% BSA were added in each well (blocking) and the plates incubated for 2 hours at room temperature. Plates were washed again two times by addition of 200 μl per well, 100 μl of cytokine standards and serial dilutions of culture supernatants were added in duplicate and the plates were incubated overnight at 4° C. Finally, the plates were washed twice and incubated with 100 μl of secondary biotinylated anti-mouse IL-6, TNFα mAbs (BD Biosciences) or IL-1β (R&D Systems) followed by peroxidase-labelled goat anti-biotin mAb (Vector Laboratories). The colorimetric reaction was developed by the addition of 2,2′-azino-bis(3)-ethylbenzylthiazoline-6-sulfonic acid (ABTS) substrate and H2O2 (Sigma) and the absorbance measured at 415 nm with a Victor® V multilabel plate reader (PerkinElmer).
Normal human bladder smooth muscle cells were isolated by enzymatic digestion from macroscopically normal pieces of human bladder. Cells were expended in vitro by culture at 37° C. in a 5% CO2 atmosphere in RPMI 1640 supplemented with 10% fetal bovine serum, 15 mM HEPES, 2 mM L-glutamine, 100 U/ml penicillin, and […] of streptomycin and passage once a week by treatment with trypsin to detach cells followed by reseeding in a new culture flask. The first week of culture, the culture medium was supplemented with 0.5 ng/ml epidermal growth factor, 2 ng/ml fibroblast growth factor, and 5 μg/ml insulin.
Bladder smooth muscle cells trypsinized and seeded in microculture plates at a cell density of 3×10^4 cells per well in 100 μl were treated with analgesic solutions (50 μl/well) either alone or together carbachol (10-Molar, 50 μl/well), as an example of non-inflammatory stimuli, or lipopolysaccharide (LPS) of Salmonella typhimurium (1 μg/ml, 50 μl/well), as an example of […] stimuli. When no other effectors were added to the cells, 50 μl of RPMI 1640 without fetal bovine serum were added to the wells to adjust the final volume to 200 μl.
as §1, with “COX2” for “Cyclooxygenase-2 (COX2)”, “COX2, PGE2 and cytokine responses.” for “COX2 responses”
COX2 and PGE2 responses were analyzed as described in Example 3. Cytokine responses were analyzed as described in Example 2.

[4] = LPS (1 μg/ml) plus analgesic 5 μM, LPS alone 420 ± 26, unstimulated 158 ± 18
[5] = LPS (1 μg/ml) plus analgesic 50 μM, LPS alone 420 ± 26, unstimulated 158 ± 18

SMILES | induction of COX2 responses by analgesic alone [1] | Total COX2 levels (Normalized RFUs) [1, 4] | Total COX2 levels (Normalized RFUs) [1, 5] | effect on the effect of LPS on COX2 levels [1] | Maximum serum levels after oral therapeutic doses [2] | TNFα (pg/ml) Subject 2 [3] | TNFα (pg/ml) Subject 1 [3] | effect on the effect of carbachol and LPS on TNFα responses [3] | Total COX2 levels (Normalized RFUs) ([1]; stimulus alone, no analgesic (LPS 1 μg/ml, Carbachol (mM)), unstimulated 158 ± 18) | Total COX2 levels (Normalized RFUs) ([1]; stimulus alone, no analgesic (LPS 1 μg/ml, Carbachol (mM)), unstimulated 158 ± 18, listed as carbachol) | TNFα responses to stimulus alone ([3]; no analgesic)
COc1ccc2cc([C@H](C)C(=O)O)ccc2c1 [Naproxen] | none of the analgesics tested induced COX2 responses | 284 ± 11 Normalized RFUs | 279 ± 23 Normalized RFUs | suppress | ≤ 60 mg/L | 137 pg/mL | 129 pg/mL | suppress |  |  | 
CC(C)Cc1ccc(C(C)C(=O)O)cc1 (stereo not shown) [Ibuprofen, ibuprofen] |  |  |  |  | 24 to 32 mg/L | 121 pg/mL | 146 pg/mL | suppress |  |  | 
C[N+](C)(C)CCOC(N)=O [Carbachol, carbachol] |  |  |  |  |  |  |  |  | 149 ± 21 Normalized RFUs | no significant effect | induced low, but significant TNFα and IL-6 responses
CC(=O)Nc1ccc(O)cc1 [Acetaminophen, N-acetyl-para-aminophenol] | none of the analgesics tested induced COX2 responses | 275 ± 12 Normalized RFUs | 243 ± 15 Normalized RFUs | suppress | 11 to 18 mg/L | 164 pg/mL | 138 pg/mL | suppress |  |  | 
CC(=O)Oc1ccccc1C(=O)O [Aspirin, Acetylsalicylic acid] | none of the analgesics tested induced COX2 responses | 240 ± 17 Normalized RFUs | 258 ± 21 Normalized RFUs | suppress | 30 to 100 mg/L | 142 pg/mL | 110 pg/mL | suppress |  |  | 
